Reference: patent publication US20250304567A1, “PYRROLIDIONE DERIVATIVES AS INHIBITORS OF NF KAPPA B INDUCING KINASE” (priority 2022, published 2025)
Like-named read-outs stand apart in the source and are kept apart here.

Key:
[1] = target: Recombinant Human NF-kappaB-Inducing Kinase (NIK/MAP3K14) (Homo sapiens, UniProt Q99558); assay: Inhibition of auto-phosphorylation of recombinant human NIK/MAP3K14 activity (AlphaScreen); assay type: biochemical; details: 5 μM ATP, 1 nM NIK, average if tested more than once
Method in brief: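 GST-tagged NIK (1 nM) auto-phosphorylation with 5 μM ATP, 2 h at 25 °C, pH 7.5 Tris buffer, 0.7% DMSO; stopped with anti-phospho-IKK Ser176/180 antibody and read by AlphaScreen. Signal normalized to full-activity and no-enzyme/no-ATP controls; IC50 from sigmoidal fit of % inhibition vs log concentration.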

[2] = tested on: p-IKKa levels in L363 (NIK translocated multiple myeloma) cells; assay: Effect of compounds on p-IKKa levels in L363 (NIK translocated multiple myeloma) cells (AlphaLISA SureFire Ultra p-IKKa Ser176/180); assay type: cell-based, human; details: average if tested more than once, read-out: Assay 2 IC50
Method in brief: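 L363 multiple myeloma cells, BAFF-stimulated overnight (250 ng/ml), then 6 h at 37 °C with compound (11-point 1:3 series, 0.3% DMSO) plus BAFF and 10 μM MG132. p-IKKa Ser176/180 read by AlphaLISA SureFire Ultra; IC50 from sigmoidal fit normalised to stimulated and unstimulated controls.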

[3] = Homo sapiens, L-363, p-IKKa levels in L363 cells

Recombinant Human NF-kappaB-Inducing Kinase (NIK/MAP3K14), sequence (Q99558 whole entry): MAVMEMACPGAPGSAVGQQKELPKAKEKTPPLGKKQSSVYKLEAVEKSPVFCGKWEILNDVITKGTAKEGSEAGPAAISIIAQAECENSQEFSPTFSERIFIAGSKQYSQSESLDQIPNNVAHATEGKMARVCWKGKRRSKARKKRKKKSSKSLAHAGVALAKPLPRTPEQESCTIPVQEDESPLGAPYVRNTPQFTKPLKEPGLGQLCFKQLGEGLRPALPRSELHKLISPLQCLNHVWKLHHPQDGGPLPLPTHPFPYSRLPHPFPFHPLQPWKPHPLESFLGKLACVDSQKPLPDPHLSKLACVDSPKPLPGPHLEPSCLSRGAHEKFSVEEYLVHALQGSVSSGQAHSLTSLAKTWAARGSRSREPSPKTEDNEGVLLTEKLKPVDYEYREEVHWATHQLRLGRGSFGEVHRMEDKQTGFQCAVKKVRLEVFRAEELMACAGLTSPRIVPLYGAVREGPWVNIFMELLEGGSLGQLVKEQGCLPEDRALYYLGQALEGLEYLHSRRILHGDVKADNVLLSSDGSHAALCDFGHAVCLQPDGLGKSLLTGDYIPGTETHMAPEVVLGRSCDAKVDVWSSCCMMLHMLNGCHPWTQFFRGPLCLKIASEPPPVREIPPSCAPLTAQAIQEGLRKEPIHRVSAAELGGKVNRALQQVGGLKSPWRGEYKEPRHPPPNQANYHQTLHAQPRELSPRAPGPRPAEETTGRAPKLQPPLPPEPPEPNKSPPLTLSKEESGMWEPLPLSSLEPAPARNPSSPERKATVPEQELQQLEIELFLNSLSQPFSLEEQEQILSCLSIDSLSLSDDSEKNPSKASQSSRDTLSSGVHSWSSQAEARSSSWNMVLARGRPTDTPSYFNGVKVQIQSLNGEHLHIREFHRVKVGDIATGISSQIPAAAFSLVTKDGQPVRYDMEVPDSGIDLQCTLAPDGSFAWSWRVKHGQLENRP

Molecule	IC50 [1] [nM]	IC50 [2, 3] [nM]	IC50 ([2]; p-IKKa levels in L363 cells) [nM]
C[C@H](Nc1nccc(-c2nc(-c3cc([C@]4(O)CCN(C)C4=O)ccn3)cs2)n1)c1ccnn1C [Example 290, (R)-3-Hydroxy-1-methyl-3-(2-(2-(2-(((S)-1-(1-methyl-1H-pyrazol-5-yl)ethyl)amino)pyrimidin-4-yl)thiazol-4-yl)pyridin-4-yl)pyrrolidin-2-one]	< 100	100 to 500	–
C[C@@H](Nc1nccc(-c2nc(-c3cc([C@]4(O)CCN(C)C4=O)ccn3)cs2)n1)c1ccnn1C [Example 291, (R)-3-Hydroxy-1-methyl-3-(2-(2-(2-(((R)-1-(1-methyl-1H-pyrazol-5-yl)ethyl)amino)pyrimidin-4-yl)thiazol-4-yl)pyridin-4-yl)pyrrolidin-2-one]	< 100	100 to 500	–
Cc1nn(CC(F)F)cc1Nc1nccc(-n2ccc(-c3cc([C@]4(O)CCN(C)C4=O)ccn3)n2)n1 [Example 292, (R)-3-(2-(1-(2-((1-(2,2-Difluoroethyl)-3-methyl-1H-pyrazol-4-yl)amino)pyrimidin-4-yl)-1H-pyrazol-3-yl)pyridin-4-yl)-3-hydroxy-1-methylpyrrolidin-2-one]	< 100	< 100	–
(trans)-3-hydroxy-1-methyl-3-(3-(4-(2-((1-methyl-1H-pyrazol-3-yl)amino)pyrimidin-4-yl)thiazol-2-yl)phenyl)-5-(trifluoromethyl)pyrrolidin-2-one [Example 37]	> 501	–	> 501
